In BindingDB's records for patent US9695132 (Celgene CAR LLC, 2017):

Experiments:
[1] = target: T1, Fibroblast growth factor receptor 4 (Homo sapiens, UniProt P22455); assay: Omnia Assay; conditions: pH 7.5
Method: Omnia Assay Protocol for Potency Assessment Against FGFR 4 Enzyme. a) [FGFR4-WT]=10 nM, [ATP]=300 uM, [Y10-Sox]=10 uM (ATP KMapp 300 uM): A 10x stock solution of FGFR4-WT (PR4380C), (from Invitrogen, Carlsbad, Calif.) corresponding to method a in Table 7, was prepared as described below. Alternatively, a 10x stock solution of FGFR4-WT (F01-11G), (SignalChem, Richmond, BC) corresponding to method b in Table 7, was prepared as described below. A solution of 1.4xATP (AS001A) and 5x Tyr-Sox conjugated peptide substrate (KNZ3101) were prepared in 1x kinase reaction buffer consisting of 20 mM Tris, pH 7.5, 5 mM MgCl2, 1 mM EGTA, 5 mM β-glycerophosphate, 5% glycerol (10x stock, KB002A) and 0.2 mM DTT (DS001A). […] The serially diluted compounds were prepared on a Tecan EVO100. A second addition of 10 ul of Tyr-Sox FGFR4 substrate was added to each well and the kinase reactions were started with the addition of 35 uL of 1.4xATP. The reactions were monitored every 71 seconds for 240 minutes at λex360/λem485 in a Synergy plate reader from BioTek (Winooski, Vt.).

[2] = target: T1, Fibroblast growth factor receptor 4; assay: Omnia Assay; conditions: pH 7.5; remark: listed apart in the source

T1 sequence (P22455 whole entry): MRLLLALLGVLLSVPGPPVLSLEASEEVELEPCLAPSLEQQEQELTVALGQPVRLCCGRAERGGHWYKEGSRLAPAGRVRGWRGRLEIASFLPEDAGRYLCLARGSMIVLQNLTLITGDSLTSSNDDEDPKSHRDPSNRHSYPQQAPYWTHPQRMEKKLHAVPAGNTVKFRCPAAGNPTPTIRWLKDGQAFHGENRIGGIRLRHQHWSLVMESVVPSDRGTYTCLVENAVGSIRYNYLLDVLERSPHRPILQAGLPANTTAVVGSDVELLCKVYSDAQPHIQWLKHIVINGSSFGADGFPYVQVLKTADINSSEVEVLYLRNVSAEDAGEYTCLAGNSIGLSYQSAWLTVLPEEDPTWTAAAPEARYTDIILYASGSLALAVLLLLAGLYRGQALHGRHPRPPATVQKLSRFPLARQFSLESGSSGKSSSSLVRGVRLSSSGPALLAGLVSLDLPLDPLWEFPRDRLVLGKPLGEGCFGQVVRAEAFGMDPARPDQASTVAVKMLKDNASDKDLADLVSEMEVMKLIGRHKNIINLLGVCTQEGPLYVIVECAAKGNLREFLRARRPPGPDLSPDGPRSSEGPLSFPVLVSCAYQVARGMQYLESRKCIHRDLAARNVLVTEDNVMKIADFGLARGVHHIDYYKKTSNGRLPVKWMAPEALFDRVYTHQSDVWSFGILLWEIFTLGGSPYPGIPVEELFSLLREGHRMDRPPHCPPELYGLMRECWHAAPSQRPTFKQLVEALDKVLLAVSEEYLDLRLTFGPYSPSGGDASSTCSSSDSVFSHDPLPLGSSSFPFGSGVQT

| SMILES | IC50 [1] [µM] | IC50 [2] [µM] |
| --- | --- | --- |
| C=CC(=O)Nc1cc(N2CCC(C(=O)OC(C)(C)C)CC2)ccc1Nc1ncc2c(n1)N(C)C(=O)N(c1c(Cl)c(OC)cc(OC)c1Cl)C2 [US9695132, I-62] | < 0.1 | – |
| C=CC(=O)NC1COCC1Nc1ncc2c(n1)N(Cc1c[nH]cn1)C(=O)N(c1c(Cl)c(OC)cc(OC)c1Cl)C2 (centres undefined) [US9695132, I-214] | < 0.1 | – |
| C=CC(=O)Nc1cccc(Nc2ncc3c(n2)N(Cc2cccc(NC(=O)CC)c2)C(=O)C(c2c(Cl)c(OC)cc(OC)c2Cl)C3)c1 (centres undefined) [US9695132, I-232] | – | < 0.1 |
| C=CC(=O)Nc1ccc(Nc2ncc3c(n2)N(Cc2cccc(NC(=O)CC)c2)C(=O)C(c2c(Cl)c(OC)cc(OC)c2Cl)C3)cc1 (centres undefined) [US9695132, I-233] | – | < 0.1 |
